Molecular target: T1, MtMetAP1c (Mycobacterium tuberculosis, UniProt P9WK19)
T1 construct: gene map
Test: biochemical
Details: read-out: IC50 (μM) / MtMetAP1c + 100 μM CoCl2

T1 sequence (P9WK19 whole entry): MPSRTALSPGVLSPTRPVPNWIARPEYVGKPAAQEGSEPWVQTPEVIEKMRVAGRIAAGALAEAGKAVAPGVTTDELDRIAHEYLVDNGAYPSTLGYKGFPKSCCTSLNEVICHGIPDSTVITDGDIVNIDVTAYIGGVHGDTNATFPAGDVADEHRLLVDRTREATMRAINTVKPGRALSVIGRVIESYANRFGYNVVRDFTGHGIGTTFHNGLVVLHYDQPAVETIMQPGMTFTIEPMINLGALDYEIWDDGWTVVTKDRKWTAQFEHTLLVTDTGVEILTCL

SMILES: Cc1nc(-c2ccccn2)nc(N(C)Cc2ccccc2)c1Cl [OJT008, N-benzyl-5-chloro-N,6-dimethyl-2-pyridin-2-ylpyrimidin-4-amine]
- IC50: 11.8 ± 1.3 µM

Reference: PMC10742973 (International Journal of Molecular Sciences, 2023)
